Patent EP3095787A1, “[…] ACTIVE COMPOUNDS AS DAG-LIPASE INHIBITORS” (Universiteit Leiden, priority 2015, dated 2016)

Biological target: T1, hDAGL-β (Homo sapiens, UniProt Q8NCG7)
T1 sequence (Q8NCG7 1-672): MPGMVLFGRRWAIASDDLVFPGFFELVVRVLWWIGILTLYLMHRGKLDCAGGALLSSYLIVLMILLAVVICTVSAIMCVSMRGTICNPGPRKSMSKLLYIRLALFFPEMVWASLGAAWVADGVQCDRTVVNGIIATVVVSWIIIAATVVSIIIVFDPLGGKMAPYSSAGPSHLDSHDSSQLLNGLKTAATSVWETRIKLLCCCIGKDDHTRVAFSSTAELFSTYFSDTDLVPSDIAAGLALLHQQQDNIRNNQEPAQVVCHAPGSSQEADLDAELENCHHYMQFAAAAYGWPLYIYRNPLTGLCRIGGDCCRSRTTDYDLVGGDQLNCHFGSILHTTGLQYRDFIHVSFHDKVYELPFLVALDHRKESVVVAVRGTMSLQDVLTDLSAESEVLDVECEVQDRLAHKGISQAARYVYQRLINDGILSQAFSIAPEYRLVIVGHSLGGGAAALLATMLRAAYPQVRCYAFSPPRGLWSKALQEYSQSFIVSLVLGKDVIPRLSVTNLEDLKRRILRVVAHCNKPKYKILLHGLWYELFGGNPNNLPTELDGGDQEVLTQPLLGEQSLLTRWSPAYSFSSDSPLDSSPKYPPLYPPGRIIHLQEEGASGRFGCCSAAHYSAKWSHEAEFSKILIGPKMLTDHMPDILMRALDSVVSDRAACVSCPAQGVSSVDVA
Assay: Competitive ABPP with MB064 on membranes of hDAGL-β transfected HEK293 cells
Type: biochemical
Parameters: FLAG; expressed in transfected cells; host or cells: HEK293, membranes
Conditions: n=3, read-out: pIC50 of hDAGL-β labeling (converted)
Protocol: In view of the high homology between DAGL-α and DAGL-β the inventors assesed the activity of compound 25 also on native DAGL-β. To this end, it was tested whether the ABP probe MB064 was also able to label DAGL-β. MB064 was incubated with membranes from mock and hDAGL-β transfected HEK293 cells. MB064 was able to label a protein at the expected molecular weight of DAGL-β, which was not present in the control membranes, or in S443A-hDAGL-β transfected cells, in which the catalytic serine is replaced by alanine using site-directed mutagenesis (Figure 1 F). Thus, the tailor-made probe can also detect DAGL-β.

Cc1ccc(-c2cnc3nc(C(=O)CCCCCc4ccccc4)oc3c2)cc1 [Compound 25, 1-(6-(p-Tolyl)oxazolo[4,5-b]pyridin-2-yl)-6-phenylhexan-1-one]
IC50: 39.8 nM
